Assay results: patent publication US7910624B1, “Compositions for the treatment of blood disorders” (The Trustees of Boston University, priority 1995, dated 2011)
“Also recorded” adds a separate entry of the source.

Assays:
[1] = system: Human mammary carcinoma cells (MCF-7); experiment: Human mammary carcinoma cell viability by FACS; assay type: cell-based; conditions: 4 days
Protocol: Human mammary carcinoma cells (MCF-7) were cultured alone (controls) and with arginine butyrate or isobutyramide for 4 days. Viability was assayed by FACS after incubation with a fluorescent dye taken up by viable cells (FIG. 6). Growth was decreased by 50% with isobutyramide at 1.0 mM, about 60% with arginine butyrate at 0.5 mM, and greater than 90% with arginine butyrate at 1.0 mM.

[2] = system: γ-globin gene promoter and HSS-II region of the locus control region; experiment: In vivo footprinting (LM-PCR) of patients' erythroblasts before and during treatment; set-up: species or system human
Protocol: To determine whether this increase was due to the transcriptional modulation of the γ-globin genes and, if so, to examine whether protein-DNA interactions of regulatory sequences for γ-globin gene expression have been changed, in vivo footprinting analysis of the γ-globin gene promoter and HSS-II region of the locus control region (LCR) were performed. […] Compared to conventional in vitro footprinting methods, which are ordinarily employed to analyze protein-DNA interactions for promoter regions and fail to disclose tissue-specific binding of nuclear proteins to cis-acting elements, in vivo footprinting technique is able to provide bona fide information on transcription factors binding to cis-acting elements that reflects in vivo situations.
Erythroid cell-rich fractions were prepared from patients' peripheral blood or bone marrow before and during treatment, and were in vivo methylated using DMS. […] All of the footprints were analyzed two or more times to ensure reproducibility.
In the γ-globin gene promoter, a DNA fragment extending up to −200 by relative to the transcription start site is sufficient to direct efficient transcription of the γ-globin genes (K. T. McDonagh et al., J. Biol. Chem. 266:11965-74, 1991; M. J. Urich Blood 75:990-99, 1990). […] Erythroblasts from a patient with sickle cell anemia, before and after butyrate treatment were analyzed. […]

[3] = system: γ-globin promoter fragment containing FRE-γ1; experiment: Gel mobility shift assay with nuclear extracts of patients' erythroblasts; set-up: species or system human; conditions: nuclear extracts of thalassemic patients on therapy, 21 and 43 hours after
Protocol: To gain further information on transcription factors binding to FRE elements, gel mobility shift assays with were carried out with promoter fragments containing FRE-γ1. The 3′ half of the DNA sequence of FRE-γ1 is overlapped with that of the stage-selector element (SSE) which has recently been identified in the γ-globin promoter and may be competitively silencing γ-globin gene expression in the fetal stage. Nuclear extracts were purified from a human erythroleukemia cell line, K562, and from erythroblasts that were isolated from peripheral blood or bone marrow of patients. Nuclear extracts used for gel mobility shift assays were prepared as described (Andrews et al., Nucl. Acids Res. 19:2499-2500, 1991). Oligonucleotides, corresponding to the nucleotide sequence from −39 to −78 of the γ-globin promoter (FIG. 13), were annealed to form double-stranded DNA and 5′-labeled with T4 polynucleotide kinase. Prior to addition of a labeled probe, 5 μg of nuclear extracts were mixed with 500 ng of poly(dA-dT) in 20 μl of a binding buffer (25 mM Hepes, pH 7.5, 50 mM KCl, 12.5 mM MgCl2, 1 mM DTT, 10 mM ZnSO4, 5% (v/v) glycerol, 1% (v/v) NP-40) at room temperature for 30 minutes. After addition of a labeled probe of 5×10^6 cpm, the mixture was incubated for 30 minutes at room temperature. […]

CCCC(=O)O [AB, arginine butyrate]
decrease of growth of MCF-7 ([1]; 0.5 mM): about 60% | decrease of growth of MCF-7 ([1]; 1.0 mM): greater than 90% | in vivo footprints of HSS-II ([2]; erythroblasts from a treated sickle cell patient): novel in vivo footprints that were not seen in a pre-treatment sample became apparent | in vivo footprints over the γ-globin promoter ([2]; erythroblasts of treated patients with sickle cell anemia or β-thalassemia): induces multiple transcription factors which interact with the γ-globin gene promoter; also recorded: degree of protection on G residues in FRE-γ1 consistently increased | protein-DNA binding activity in gel shift [3]: a new binding activity appeared
